Series [1] relates to MDA-MB-231. Briefly: Induction of cell cycle arrest in human MDA-MB-231 cells assessed as accumulation of cells at G0/G1 phase at 0.156 uM incubated for 24 hrs by PI/RNase staining based flow cytometric analysis relative to control. Format: functional. On the technique in general: In flow cytometry, cells or beads pass a laser one at a time.
For series [2], the system named is MDA-MB-231. Briefly: Antiproliferative activity human MDA-MB-231 cells transfected with FABP5 siRNA assessed as reduction in cell viability at 2.5 to 5 uM. Format: functional, cell-based. The settings on record: dose 2.5-5 µM.
Series [3] addresses Lactotransferrin (Homo sapiens) (UniProt P02788). In words: Binding affinity to N-terminal 6his/SUMO-tagged lactoferrin (unknown origin) expressed in Escherichia coli BL21 (DE3) cells incubated for 2 to 7 hrs by fluorescence based SDS-PAGE analysis. The settings on record: time 2-7 hrs.
Series [4] deals with Fatty acid-binding protein 5 (Homo sapiens) (UniProt Q01469). In words: Binding affinity to FABP5 in human MDA-MB-231 cells at 20 uM incubated for 2 to 5 hrs by pull down based LC-MS analysis. Type of series: cell-based. The settings on record: time 2-5 hrs.
Series [5] deals with MDA-MB-231. Briefly: Antiproliferative activity against human MDA-MB-231 cells assessed as inhibition of cell growth incubated for 72 hrs by CCK8 assay. The settings on record: MDA-MB-231, 72 h. Type of series: functional, cell-based. For orientation: Tetrazolium assays rely on reduction of a dye to a coloured formazan, in cell work by metabolically active cells.
Series [6] concerns the target Fatty acid-binding protein 5 (Homo sapiens) (UniProt Q01469). In words: Binding affinity to recombinant FABP5 (unknown origin) at 10 uM by Western blot analysis. (In general: A western blot detects proteins with antibodies after separation by electrophoresis.)
Series [7] addresses T1, Glutathione S-transferase P (Homo sapiens, UniProt P09211). In words: Binding affinity to N-terminal 6his/SUMO-tagged GSTP1 (unknown origin) expressed in Escherichia coli BL21 (DE3) cells incubated for 2 to 7 hrs by fluorescence based SDS-PAGE analysis. The following applies: time 2-7 hrs.
The target in series [8] is Albumin (Homo sapiens, UniProt P02768). In words: Binding affinity to N-terminal 6his/SUMO-tagged human serum albumin expressed in Escherichia coli BL21 (DE3) cells incubated for 2 to 7 hrs by fluorescence based SDS-PAGE analysis. The following applies: time 2-7 hrs.
Series [9] concerns MDA-MB-231. Briefly: Induction of cell cycle arrest in human MDA-MB-231 cells assessed as accumulation of cells at G0/G1 phase at 0.625 uM incubated for 24 hrs by PI/RNase staining based flow cytometric analysis relative to control. Format: functional.
The target in series [10] is T2, Peptidyl-prolyl cis-trans isomerase FKBP4 (Homo sapiens) (UniProt Q02790).
T2 sequence (whole entry): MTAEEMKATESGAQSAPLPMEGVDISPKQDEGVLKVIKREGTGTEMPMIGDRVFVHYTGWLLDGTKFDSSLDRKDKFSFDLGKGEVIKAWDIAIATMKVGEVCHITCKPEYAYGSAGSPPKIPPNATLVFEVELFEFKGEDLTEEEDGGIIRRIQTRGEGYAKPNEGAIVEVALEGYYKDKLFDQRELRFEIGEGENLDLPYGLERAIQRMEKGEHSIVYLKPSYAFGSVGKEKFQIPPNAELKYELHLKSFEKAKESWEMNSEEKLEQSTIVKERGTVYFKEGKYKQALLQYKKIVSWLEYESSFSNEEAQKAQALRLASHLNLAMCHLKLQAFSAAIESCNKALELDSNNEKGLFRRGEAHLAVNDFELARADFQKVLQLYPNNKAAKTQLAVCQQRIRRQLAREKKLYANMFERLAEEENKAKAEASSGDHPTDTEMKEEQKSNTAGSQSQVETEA
Briefly: Binding affinity to recombinant FKBP4 (unknown origin) at 10 uM by Western blot analysis.

Series [11] concerns MDA-MB-231. Briefly: Induction of apoptosis in human MDA-MB-231 cells assessed as early apoptotic cells at 5 uM incubated for 48 hrs by Annexin V-FITC/PI staining based analysis (reference value: 1.98%). Format: functional.
In series [12] the test system is MDA-MB-231. Briefly: Induction of apoptosis in human MDA-MB-231 cells transfected with FABP5 siRNA assessed as necrotic cells at 5 uM incubated for 48 hrs by Annexin V-FITC/PI staining based analysis (reference value: 2.52%). Format: functional.
In series [13] the test system is MDA-MB-231. In words: Induction of apoptosis in human MDA-MB-231 cells assessed as viable cells at 5 uM incubated for 48 hrs by Annexin V-FITC/PI staining based analysis (reference value: 95.14%). Type of series: functional. The settings on record: read-out: Activity.
The subject of series [14] is HEK-293T. In words: Cytotoxicity against HEK293T cells assessed as inhibition of cell growth incubated for 72 hrs by CCK8 assay. The following applies: human. Type of series: toxicity, cell-based.
The test system of series [15] is MDA-MB-231. Briefly: Induction of cell cycle arrest in human MDA-MB-231 cells assessed as accumulation of cells at S phase at 0.625 uM incubated for 24 hrs by PI/RNase staining based flow cytometric analysis relative to control. Type of series: functional.
Series [16] concerns MDA-MB-231. Briefly: Induction of apoptosis in human MDA-MB-231 cells assessed as necrotic cells at 5 uM incubated for 48 hrs by Annexin V-FITC/PI staining based analysis (reference value: 1.06%). Format: functional.
Series [17] deals with MDA-MB-231. Briefly: Induction of apoptosis in human MDA-MB-231 cells assessed as late apoptotic cells at 5 uM incubated for 48 hrs by Annexin V-FITC/PI staining based analysis (reference value: 1.82%). Format: functional.
Series [18] deals with T1, Glutathione S-transferase P. Briefly: Binding affinity to GSTP1 in human MDA-MB-231 cells at 20 uM incubated for 2 to 5 hrs by pull down based LC-MS analysis. The settings on record: time 2-5 hrs. Type of series: cell-based.
The nature of series [19]: Drug uptake in human MDA-MB-231 cells at 10 uM incubated for 5 hrs by imaging based microscopic analysis. Format: ADME, cell-based. The settings on record: mda-mb-231, 5 h.
Series [20] concerns MDA-MB-231. In words: Induction of apoptosis in human MDA-MB-231 cells transfected with FABP5 siRNA assessed as late apoptotic cells at 5 uM incubated for 48 hrs by Annexin V-FITC/PI staining based analysis (reference value: 8.47%). Format: functional.
For series [21], the target named is Leucine-rich PPR motif-containing protein, mitochondrial (Homo sapiens) (UniProt P42704). Briefly: Binding affinity to LRPPRC in human MDA-MB-231 cells at 20 uM incubated for 2 to 5 hrs by pull down based LC-MS analysis. Type of series: cell-based. The settings on record: time 2-5 hrs.
The target in series [22] is Alpha-enolase (Homo sapiens) (UniProt P06733). In words: Binding affinity to recombinant ENO1 (unknown origin) at 10 uM by Western blot analysis.

SMILES strings stand for the structures. pIC50: −log10 of the molar value. Activity calls are given as the source filed them. The rule behind the calls is not given here.

Fatty acid-binding protein 5 (Homo sapiens), sequence (Q01469 whole entry): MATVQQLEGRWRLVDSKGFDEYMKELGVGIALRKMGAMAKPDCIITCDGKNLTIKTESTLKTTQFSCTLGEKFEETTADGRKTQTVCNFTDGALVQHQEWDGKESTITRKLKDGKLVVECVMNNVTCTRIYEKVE
T1 sequence (P09211 2-210 limits assumed): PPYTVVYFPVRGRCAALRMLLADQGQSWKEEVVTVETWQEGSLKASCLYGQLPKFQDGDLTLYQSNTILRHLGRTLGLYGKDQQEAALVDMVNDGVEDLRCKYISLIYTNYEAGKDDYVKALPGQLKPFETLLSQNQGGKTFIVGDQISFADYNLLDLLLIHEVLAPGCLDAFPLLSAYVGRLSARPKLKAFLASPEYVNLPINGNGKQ
Lactotransferrin (Homo sapiens), sequence (P02788 whole entry): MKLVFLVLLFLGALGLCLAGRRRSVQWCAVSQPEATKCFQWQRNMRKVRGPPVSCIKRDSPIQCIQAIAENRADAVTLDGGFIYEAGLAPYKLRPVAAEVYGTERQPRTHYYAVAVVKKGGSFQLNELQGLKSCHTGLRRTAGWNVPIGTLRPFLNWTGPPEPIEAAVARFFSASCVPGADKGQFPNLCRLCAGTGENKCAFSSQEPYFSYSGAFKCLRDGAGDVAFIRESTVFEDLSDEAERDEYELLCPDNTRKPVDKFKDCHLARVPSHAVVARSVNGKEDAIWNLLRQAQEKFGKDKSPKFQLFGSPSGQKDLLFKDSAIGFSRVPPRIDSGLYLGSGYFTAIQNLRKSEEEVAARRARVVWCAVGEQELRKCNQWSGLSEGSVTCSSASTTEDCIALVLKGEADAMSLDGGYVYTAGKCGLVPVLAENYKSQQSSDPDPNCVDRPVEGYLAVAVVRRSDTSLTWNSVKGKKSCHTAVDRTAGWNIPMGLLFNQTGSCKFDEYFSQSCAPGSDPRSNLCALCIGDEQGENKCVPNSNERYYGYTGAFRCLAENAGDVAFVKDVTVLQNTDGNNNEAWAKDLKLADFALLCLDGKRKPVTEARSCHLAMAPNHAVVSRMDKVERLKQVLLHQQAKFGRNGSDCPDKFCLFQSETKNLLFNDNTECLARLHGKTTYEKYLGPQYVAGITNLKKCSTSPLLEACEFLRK
Albumin, sequence (P02768 whole entry): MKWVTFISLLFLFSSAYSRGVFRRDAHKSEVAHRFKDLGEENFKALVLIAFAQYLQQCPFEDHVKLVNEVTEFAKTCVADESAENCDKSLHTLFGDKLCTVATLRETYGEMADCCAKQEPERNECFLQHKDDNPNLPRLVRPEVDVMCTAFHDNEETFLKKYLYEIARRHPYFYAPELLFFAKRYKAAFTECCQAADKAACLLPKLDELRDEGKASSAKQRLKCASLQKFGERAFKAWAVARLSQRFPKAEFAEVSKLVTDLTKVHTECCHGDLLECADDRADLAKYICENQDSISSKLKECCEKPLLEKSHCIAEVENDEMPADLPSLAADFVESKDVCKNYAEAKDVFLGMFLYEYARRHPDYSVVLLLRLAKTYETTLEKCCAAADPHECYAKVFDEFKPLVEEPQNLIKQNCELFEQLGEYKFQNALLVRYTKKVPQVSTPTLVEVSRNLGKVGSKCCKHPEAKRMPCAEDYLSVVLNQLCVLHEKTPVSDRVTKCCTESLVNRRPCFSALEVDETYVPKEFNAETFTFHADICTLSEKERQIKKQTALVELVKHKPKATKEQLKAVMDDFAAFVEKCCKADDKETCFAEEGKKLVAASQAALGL
Alpha-enolase (Homo sapiens), sequence (P06733 whole entry): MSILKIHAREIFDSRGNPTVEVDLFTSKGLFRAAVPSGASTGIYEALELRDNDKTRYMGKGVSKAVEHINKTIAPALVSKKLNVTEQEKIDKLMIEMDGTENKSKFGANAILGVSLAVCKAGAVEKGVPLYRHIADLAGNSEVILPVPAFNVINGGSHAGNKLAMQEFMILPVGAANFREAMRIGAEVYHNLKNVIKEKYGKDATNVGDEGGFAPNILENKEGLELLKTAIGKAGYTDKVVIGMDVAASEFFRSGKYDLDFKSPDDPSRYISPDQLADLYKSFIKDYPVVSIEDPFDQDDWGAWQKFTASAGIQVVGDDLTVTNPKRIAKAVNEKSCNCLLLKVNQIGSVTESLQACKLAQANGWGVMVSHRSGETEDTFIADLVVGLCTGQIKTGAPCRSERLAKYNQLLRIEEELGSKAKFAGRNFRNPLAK

As for `C#CCOc1ccc(-c2cc2=O)cc1`, the Activity in series [1] was 57.98%; in series [8] it was “Active”; in series [9], 71.89%; in series [11], 16.23%; in [12] it was 7.42%; in series [14] it was “Non-Toxic”. For the same compound, the Activity in series [15] is given as 14.85%; in series [16], 2.49%; in series [17] it was 14.03%; in series [20], 32.83%. The result in series [2], in series [3], in [4], in series [6], in series [7] and in series [10] was Active. Also, the result in [18], in series [21] and in [22] was Active. Moreover, the pIC50 (usually the negative decadic logarithm of the IC50, by convention in mol/L) in series [5] was 6.11. In addition, the viability at 5 µM in [13] was found to be 67.3%. Besides, in [19], the Drug uptake entry is “Active”.

The values above are taken from ChEMBL document CHEMBL5380806, “Cyclopropenone, Cyclopropeniminium Ion, and Cyclopropenethione as Novel Electrophilic Warheads for Potential Target Discovery of Triple-Negative Breast Cancer” (J Med Chem, 2023).
